Experimental findings from patent US20260209206A1, “STAT6 DEGRADERS AND USES THEREOF” (Kymera Therapeutics, Inc., priority 2023, published 2026) are described below.

A value given as a limit tells only on which side of the number the result lay.

What is called IC50 is the concentration at which inhibition is half-maximal. Low values mean greater potency in that assay, high ones weaker potency in that assay. What is called DC50 is the concentration giving 50% degradation. Lower therefore signals degradation at low concentration. The term Dmax denotes the largest share of the target that was removed. A lower Dmax goes with shallow degradation.

Assay [1] addresses T1, biotinylated truncated STAT6 (123-632)-avi (Homo sapiens, UniProt P42226).
T1 construct: 0.15 nM biotinylated truncated STAT6 (123-632)-avi purified from E. coli; made in house; host or cells: E. coli
T1 sequence (P42226 123-632 limits assumed): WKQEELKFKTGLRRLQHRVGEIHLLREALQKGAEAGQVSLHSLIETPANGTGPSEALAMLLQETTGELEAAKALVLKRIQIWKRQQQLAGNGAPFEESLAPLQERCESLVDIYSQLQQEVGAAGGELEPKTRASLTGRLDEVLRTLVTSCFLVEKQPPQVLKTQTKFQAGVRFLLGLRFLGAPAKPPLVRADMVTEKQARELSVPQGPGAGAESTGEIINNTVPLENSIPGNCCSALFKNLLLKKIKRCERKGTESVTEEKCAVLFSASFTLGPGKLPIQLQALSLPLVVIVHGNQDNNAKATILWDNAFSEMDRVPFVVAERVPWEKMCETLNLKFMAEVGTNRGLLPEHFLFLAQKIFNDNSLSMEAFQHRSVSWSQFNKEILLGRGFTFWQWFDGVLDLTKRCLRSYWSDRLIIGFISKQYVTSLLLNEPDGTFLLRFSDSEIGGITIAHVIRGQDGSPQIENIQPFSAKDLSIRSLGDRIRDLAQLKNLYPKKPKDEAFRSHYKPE
Briefly: STAT6 HTRF binding assay. To be noted: 0.15 nM STAT6 (123-632)-avi, 20 nM fluorescein-labeled probe, 30 minutes at room temperature. The protocol: HTRF binding assays were perforned using 0.15 nM biotinylated truncated STAT6 (123-632)-avi purified from E. coli, 1× Streptavidin-terbium (CisBio) prepared by mixing SA-Tb in PPI detection buffer (CisBio), 20 nM proprietary fluorescein-labeled probe, and test compounds in assay buffer consisting of 50 mM HEPES-Na pH 7.5, 100 mM NaCl, 1 mM EDTA, 2 mM DTT, 0.1% Tween-20 with a final volume of 20 uL. Compound stocks were dissolved at 10 mM in 100% DMSO and 11 point titration with 3 fold serial dilution was performed in white, opaque 384 well microplates. Reaction plates were incubated at room temperature for 30 minutes. Plates were centrifuged at low rpm for 5 mins, and the ratio of fluorescence intensities were measured at emission wavelengths for fluorescein acceptor (520 nm) and terbium donor (495 nm) on Envision Plate reader. % Inhibition was calculated from the 520/495 ratio generated by using proprietary positive control compound for 100% inhibition and DMSO only reactions for 0% inhibition. Data was processed and dose response curves were generated using GraphPad Prism to determine the concentration required for inhibiting 50% of the HTRF signal (IC50).
The letter codes for IC50 (μM) include: A (<0.1 μM); B (0.1-1 μM); C (>1-10 μM); D (>10-100 μM); E (>100 μM); and F (not tested).

The target in another assay is T2, STAT6 (Homo sapiens, UniProt P42226).
T2 construct: endogenous in cells; host or cells: A549 (STAT6-HiBiT), endogenous locus tagged
T2 sequence (P42226 1-847): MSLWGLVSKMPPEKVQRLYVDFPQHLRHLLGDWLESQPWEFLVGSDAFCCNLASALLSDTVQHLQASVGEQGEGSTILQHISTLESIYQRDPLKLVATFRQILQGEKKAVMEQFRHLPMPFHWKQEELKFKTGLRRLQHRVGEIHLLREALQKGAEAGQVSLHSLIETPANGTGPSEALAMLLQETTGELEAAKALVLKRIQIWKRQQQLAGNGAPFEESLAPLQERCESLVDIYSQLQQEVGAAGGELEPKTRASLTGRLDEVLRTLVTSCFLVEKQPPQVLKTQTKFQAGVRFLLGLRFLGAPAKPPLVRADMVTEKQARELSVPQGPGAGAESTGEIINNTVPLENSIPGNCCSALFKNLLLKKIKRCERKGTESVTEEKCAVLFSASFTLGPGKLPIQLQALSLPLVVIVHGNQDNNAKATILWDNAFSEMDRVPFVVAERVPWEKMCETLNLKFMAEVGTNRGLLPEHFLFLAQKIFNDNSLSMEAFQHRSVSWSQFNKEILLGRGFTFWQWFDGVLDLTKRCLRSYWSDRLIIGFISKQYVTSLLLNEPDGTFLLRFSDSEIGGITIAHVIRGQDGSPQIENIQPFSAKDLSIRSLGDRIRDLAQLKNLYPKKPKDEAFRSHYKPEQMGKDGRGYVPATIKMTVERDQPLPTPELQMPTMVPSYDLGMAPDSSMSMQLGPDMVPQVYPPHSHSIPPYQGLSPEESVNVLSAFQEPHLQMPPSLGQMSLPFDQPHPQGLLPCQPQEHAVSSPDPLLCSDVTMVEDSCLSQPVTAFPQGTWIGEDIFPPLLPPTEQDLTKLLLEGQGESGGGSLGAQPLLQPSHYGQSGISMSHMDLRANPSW
Kind of assay: STAT6 MSD degradation in A549 cells. It is filed as cell-based. To be noted: 24 h. Here is the method:
Degradation of STAT6 in cells was quantitatively measured using Meso Scale Discovery (MSD) technology. A549 cells were seeded in 96-well plates with a density of 1.5×10e4 to 5×10e5 cells per well in 100 μl fresh media. Compounds were then added to the assay plates with a final top concentration of up to 10 uM in a 1:3 dilution series with total of 9 doses. The assay plates were then incubated for 4 to 24 hours at 37° C. under 5% CO2. The assay plates were then centrifuged for 5 minutes and the cell pellets were treated with 100 μl/well RIPA lysis buffer (Boston Bioproducts, BP-115D) with protease and phosphatase inhibitors (Roche, 05892791001 and 04906837001). To prepare the MSD assay plates (MSD, L15XA), the plates were coated with the capture antibody (Abnova, H00006778) in PBS, at 40 μl/well. The plates were then incubated overnight at 4° C., washed 1 time with […] TBST buffer (Cell Signaling Technology, #9997S) and blocked with 150 μl/well blocking buffer (MSD, R93BA-4). Cell lysates were then added to MSD assay plates and the plates were incubated at room temperature for 1 hour. The plates were then washed 3 times with 150 μl/well TBST buffer and 25 μl/well primary detection antibody (Cell Signaling Technology, #5397S). The assay plates were then incubated at room temperature for 1 hour, washed 3 times with 150 μl/well TBST buffer, and 25 μl/well secondary detection antibody, SULFO-TAG anti-rabbit antibody (MSD, R32AB-1) were added. The assay plates were then incubated at room temperature for 1 hour, washed 3 times with 150 μl/well TBST buffer, and 150 μl/well MSD reading buffer (MSD, R92TC-2) were added. The plates were then analyzed by an MSD reader. The data was analyzed by GraphPad Prism and the dose dependent STAT6 degradation was fit using the four-parameter inhibitor vs. response nonlinear regression.
The letter codes for DC50 (nM) include: A (<1 nM); B (1-10 nM); C (>10-100 nM); D (>100-1000 nM); E (>1000 nM); and F (not tested). The letter codes for Dmax (%) include: A (>90%); B (>70-90%); C (>50-70%); D (<50%); and E (not tested).

Compound `CN(C)C(=O)c1cc2ccc(C3=CCCN(C(=O)C4Cc5c(cccc5OCCOCCOCCOCCc5cccc6c5n(C)c(=O)n6C5CCC(=O)NC5=O)CN4C=O)C3)cc2[nH]1` (stereo not drawn) [I-98] came in with an IC50 in assay [1] of 10 to 100 µM. In addition, at STAT6, the DC50 was above 1000 nM and the Dmax is below 50%.
